Reference: patent US6861435B2, “Urokinase inhibitors” (Pentapharm AG, priority 2001, dated 2005)
Counter-ions that a name gives are not always drawn.

Biological target: T1, sc-urokinase (Homo sapiens, UniProt P00749)
T1 construct: purchased Ribosepharm GmbH, Haan, Germany
Test: Determination of the urokinase-inhibiting activity (chromogenic substrate, Dixon)
Format: biochemical
Details: Pefachrome UK or Bz-βAla-Gly-Arg-pNA, 25° C., pH 8.0, mean from at least 3 determinations
Protocol: Determination of the Urokinase-inhibiting Activity
To determine the inhibitory activity, 200 μl of Tris buffer (0.05 mol/l, containing the inhibitor, 0.154 mol/l of NaCl, 5% ethanol, pH 8.0), 25 μl of substrate (Pefachrome UK or Bz-βAla-Gly-Arg-pNA in H2O; Pentapharm Ltd., Basel, Switzerland) and 50 μl of sc-urokinase (Ribosepharm GmbH, Haan, Germany) were incubated at 25° C. After 3 min the reaction was stopped by the addition of 25 μl of acetic acid (50%) and the absorption was determined at 405 nm by means of a microplate reader (MR 50001 Dynatech, Denkendorf, Germany). The Ki values were determined according to Dixon by linear regression using a computer program. The Ki values represent the mean from at least 3 determinations.
The Ki values mentioned in Table 2 can be determined according to the above mentioned method.

| Ki | Compound |
| --- | --- |
| 0.67 ± 0.18 µM | CCOC(=O)N1CCN(C(=O)N(Cc2cccc(C(=N)N)c2)NS(=O)(=O)c2c(C(C)C)cc(C(C)C)cc2C(C)C)CC1 [Example 5, 1-Ethoxycarbonyl-4-[1-(3-(amino-imino-methyl)-benzyl)-2-(2,4,6-triisopropyl-benzenesulfonyl)-1-hydrazino-carbonyl]-piperazine hydrochloride] |
| 25.6 ± 9.5 µM | CCOC(=O)N1CCN(C(=O)N(Cc2cccc(C(N)=NN)c2)NS(=O)(=O)c2c(C(C)C)cc(C(C)C)cc2C(C)C)CC1 [Example 18] |
